The source made the active and inactive calls. No rule for the calls is given here.
Assay: non-covalent RecA intein splicing inhibitors, dose response, biochemical, cell-free, fluorescence, secondary screen (AID 449750)
For `CCOC(=O)c1c(CCl)nc2ccccc2c1-c1ccccc1`, the AC50 was 8.34 µM.
With `CCCc1[nH]nc2c1C(c1ccncc1)C(C#N)=C(N)O2` (stereo not drawn) the AC50 was > 38 µM (inactive).
With `Cc1nnc(N/N=C/c2cccc(OCc3ccc(Cl)c(Cl)c3)c2)n1N` the AC50 was 23.4 µM.
`CCCCCCCCCC[N+](C)(C)CC/C=C1/c2ccccc2Sc2ccc(Cl)cc21` showed an AC50 of 5.09 µM.
Work on `FC(F)(F)c1ccc(C2[C@H]3CN(Cc4cccnc4)[C@H](c4ccccc4)C34CC2(c2cccnc2)C4)cc1` (stereo partly drawn) yielded an AC50 of 5.51 µM.
`Cc1ccc2c(c1)c1c3n2CCN(C(=O)CCl)C3CCC1` (stereo not drawn) showed an AC50 of 3.29 µM.
With `CC1=NNC(=O)C1Cc1ccccc1C` (stereo not drawn) the AC50 was > 38 µM (inactive).
`CNCC(O)CN(c1ccccc1)c1ccccc1` (stereo not drawn) gave an AC50 of 10.5 µM.
With `Cc1[nH][nH]c(=O)c1C(c1ccccc1[N+](=O)[O-])C(C#N)C#N` (stereo not drawn) the AC50 was > 38 µM (inactive).
In the case of `CC(C)c1[nH]nc2c1C(c1cccc(OC(=O)N3CCOCC3)c1)C(C#N)=C(N)O2` (stereo not drawn), the AC50 is reported as > 38 µM (inactive).
In the case of `O=[N+]([O-])c1ccc(N2CCCC(C(F)(F)F)C2)c2ccncc12` (stereo not drawn), the AC50 is reported as > 38 µM (inactive).
In the case of `CCSc1nnc(NC(=O)c2nc(S(=O)(=O)Cc3ccc(F)cc3)ncc2Cl)s1`, the AC50 is reported as > 38 µM (inactive).
For `CC(=O)Nc1ccc(NC(=O)CSc2ncc(C(=O)Nc3ccccc3)c(=O)n2C)cc1`, the AC50 was 1.04 µM.
Work on `COc1ccccc1N(C(=O)CCl)c1cn(C(C)=O)c2ccccc12` yielded an AC50 of 2.36 µM.
Work on `N=c1c2c(-c3ccccc3)c(-c3ccccc3)n(Cc3ccco3)c2ncn1Cc1ccco1` yielded an AC50 of 6.99 µM.
`COc1cccc(-c2cc(=O)[nH][nH]2)c1` showed an AC50 of 13.9 µM.
For `CC1=NN(c2ccc(C)cc2C)C(=O)C1C(c1ccccc1)C1C(=O)N(c2ccc(C)cc2C)N=C1C` (stereo not drawn), the AC50 was 3.04 µM.
`CC(C)(C)c1ccc(/C=C(\c2nc3ccccc3[nH]2)S(=O)(=O)c2ccccc2)cc1` showed an AC50 of 39.1 µM.
For `COc1cccc(-n2nc(C#N)c(Cl)cc2=O)c1`, the AC50 was > 38 µM (inactive).
With `Cc1ccc(S(=O)(=O)/N=C2/C=C(C3C(=O)CC(C)(C)CC3=O)C(=O)c3ccccc32)cc1` the AC50 was > 38 µM (inactive).
In the case of `CCCSc1cc(NCCOC(=O)CCC)c([N+](=O)[O-])c2nonc12`, the AC50 is reported as > 38 µM (inactive).
With `O=C(CCl)NN=C(c1ccccc1)c1ccccc1` the AC50 was 6.37 µM.
For `CC1CCCC(NC(=O)NC(=O)CCl)C1C` (stereo not drawn), the AC50 was 29.3 µM.
For `O=C(NC1C(=O)NNC1c1ccccc1)c1ccccc1` (stereo not drawn), the AC50 was > 38 µM (inactive).
In the case of `CCC(=O)Oc1ccc(C(=O)Nc2cccc(C(=O)c3ccccc3)c2)cc1`, the AC50 is reported as 32.8 µM.
In the case of `O=C(N/N=C/c1ccc([N+](=O)[O-])o1)c1ccc(O)cc1`, the AC50 is reported as > 38 µM (inactive).
With `COC(=O)c1c(NC(=O)/C=C/C(=O)O)sc(Cc2ccccc2)c1C` the AC50 was 2.33 µM.
In the case of `COc1ccccc1NC(=O)CSc1nc2c(sc3ccccc32)c(=O)n1CCN(C)C`, the AC50 is reported as > 38 µM (inactive).
Work on `COC(=O)c1ccc(NC(=O)c2nc(S(=O)(=O)Cc3cccc(C)c3)ncc2Cl)cc1` yielded an AC50 of 17.1 µM.
For `O=S(=O)(O)Oc1c[nH]c2ccccc12`, the AC50 was 5.48 µM.
In the case of `COc1ccc(-c2cc(CNC(=O)CCl)on2)cc1`, the AC50 is reported as 16.1 µM.
With `CC(=O)NC1N=C(C)N(c2ccccc2)C1=O` (stereo not drawn) the AC50 was 33.7 µM.
In the case of `COc1cc(C(C(=O)NC2CCCCC2)N(CCN2CCOCC2)C(=O)C2COc3ccccc3O2)cc(OC)c1OC` (stereo not drawn), the AC50 is reported as > 38 µM (inactive).
In the case of `Cc1ccc(-c2nc(CN3CCCC(C(=O)N4CCOCC4)C3)c(C)o2)cc1` (stereo not drawn), the AC50 is reported as > 38 µM (inactive).
Molecule `CCOc1cc(C(c2c(C)[nH][nH]c2=O)c2c(C)[nH][nH]c2=O)ccc1OC(=O)c1cccc([N+](=O)[O-])c1` has an AC50 of 6.48 µM.
In the case of `O=C(CCS(=O)NCc1ccccc1)NCc1ccccc1` (stereo not drawn), the AC50 is reported as > 38 µM (inactive).
Molecule `OCCN(CCO)c1ccc(C(c2ccccc2Cl)c2ccc(N(CCO)CCO)cc2Cl)c(Cl)c1` has an AC50 of 4.12 µM.
For `O=C(c1cc(F)c(F)cc1Cl)N1CCN(c2ccc([N+](=O)[O-])c3ncccc23)CC1`, the AC50 was > 38 µM (inactive).
`CC(C)c1ccc(/C=N/NC(=O)c2nnn(-c3nonc3N)c2CSC2=NCCS2)cc1` showed an AC50 of 27.6 µM.
In the case of `Cc1ccc(CNC(=O)CCN2C(=O)[C@@H]3Cc4ccccc4CN3C2=O)cc1`, the AC50 is reported as > 38 µM (inactive).
In the case of `O=C1NCN(c2ccccc2)C12CCN(CCCC(c1ccc(F)cc1)c1ccc(F)cc1)CC2`, the AC50 is reported as 16.5 µM.
For `O=C(O)c1ccc(-n2c(=O)c3ccccc3c3ccccc3c2=O)cc1`, the AC50 was > 38 µM (inactive).
`CCOC(=O)c1c(OCC)[nH]c2c1cc(O)c1ccccc12` showed an AC50 of 32.1 µM.
`CC1=NN(CCC#N)C(=O)/C1=C/c1ccc(N(C)C)cc1` showed an AC50 of 22.4 µM.
Work on `O=C1C(=O)c2ccccc2-c2ccccc21` yielded an AC50 of 16.8 µM.
`Cc1ccc(S(=O)(=O)Oc2ccc(C(c3c(C)[nH][nH]c3=O)c3c(C)[nH][nH]c3=O)cc2)cc1` gave an AC50 of 2.22 µM.
With `CS(=O)(=O)c1ncc(Cl)c(C(=O)Nc2ccc(N3CCOCC3)cc2)n1` the AC50 was > 38 µM (inactive).
Molecule `O=C(c1c[nH]c(C(=O)C(Cl)(Cl)Cl)c1)c1ccc(F)cc1Cl` has an AC50 of 30.1 µM.
`CC(=O)N(C1=C(N2CCOCC2)C(=O)c2ccccc2C1=O)c1ccc(C(=O)O)cc1` showed an AC50 of 9.14 µM.
In the case of `Cc1c(C#N)c(NC(=O)CCl)n(Cc2ccc(F)cc2)c1C`, the AC50 is reported as 3.69 µM.
With `Cc1cc(C(=O)Cn2ncc(Cl)c(Cl)c2=O)c(C)n1CC(F)(F)F` the AC50 was > 38 µM (inactive).
For `Cc1ccc2c(c1)c1c(n2CC(O)CN2CCCCCC2)CCCC1` (stereo not drawn), the AC50 was > 38 µM (inactive).
For `CC(=O)NC1C(=O)N(CCN2CCOCC2)c2ccc(C)cc21` (stereo not drawn), the AC50 was 21.6 µM.
For `CC(=O)c1cccc(-c2ccc3c(=O)[nH]c(Nc4ccccc4)cc3c2)c1`, the AC50 was 6.06 µM.
`Cc1cc(C)c(S(=O)(=O)Nc2cc(SCC(=O)O)c(O)c3ccccc23)cc1C` gave an AC50 of 2.58 µM.
Molecule `COc1cc2c(cc1OC)C(c1cc(Br)ccc1F)N(C(=O)CCl)CC2` (stereo not drawn) has an AC50 of 2.43 µM.
In the case of `CCN(CC)CCOc1ccc(/C(=C(\Cl)c2ccccc2)c2ccccc2)cc1`, the AC50 is reported as 9.57 µM.
`Cc1ccc(C(c2c(C)[nH][nH]c2=O)c2c(C)[nH][nH]c2=O)cc1[N+](=O)[O-]` gave an AC50 of 32.1 µM.
`CCOC(=O)C1CCN(S(=O)(=O)c2c(Cl)ccc3nonc23)CC1` showed an AC50 of 11.6 µM.
In the case of `Cc1[nH][nH]c(=O)c1[C@@H](c1ccccc1[N+](=O)[O-])C(C#N)C#N`, the AC50 is reported as > 38 µM (inactive).
Work on `Cc1ccc2c(c1)-c1c(ssc1=S)C(C)(C)N2C(=O)CSC1=NCCS1` yielded an AC50 of 32.5 µM.
With `CN1CCN(C(c2ccc(C(F)(F)F)cc2)c2cc(Cl)c3cccnc3c2O)CC1` (stereo not drawn) the AC50 was > 38 µM (inactive).
`Cc1cc(C(=O)N/N=C/c2c(C)[nH]n(-c3ccccc3)c2=O)n[nH]1` gave an AC50 of 3.74 µM.
Work on `CCOC(=O)C1=C(C)NC(SCc2cc(=O)[nH][nH]2)=C(C#N)C1c1cccs1` (stereo not drawn) yielded an AC50 of 4.69 µM.
In the case of `CCCCCc1cc(=O)oc2c(C(CCN3CCCC(C)C3)c3ccc4c(c3)OCO4)c(OC)cc(OC)c12` (stereo not drawn), the AC50 is reported as 10.5 µM.
With `Cc1[nH]nc2c1C1(CCN(C(=O)c3ccccc3)CC1)C(C#N)=C(N)O2` the AC50 was > 38 µM (inactive).
With `O=C(O)c1ccccc1-c1ccccc1C(=O)Nc1ccc(-c2nc3cc(Cl)ccc3o2)cc1` the AC50 was 9.29 µM.
For `COCc1[nH]nc2c1C(c1ccsc1)C(C#N)=C(N)O2` (stereo not drawn), the AC50 was 35.3 µM.
`CCOc1ccc(NC(=O)C(c2ccccn2)N(C(=O)CCl)c2ccc(F)cc2)cc1` (stereo not drawn) showed an AC50 of 36.2 µM.
In the case of `COc1ccc(CC(=O)N/N=C(/C)CC(=O)N(C)c2ccccc2)cc1`, the AC50 is reported as > 38 µM (inactive).
For `Cc1nn(Cc2ccccc2)c2c1C(c1cccnc1)C(C#N)=C(N)O2` (stereo not drawn), the AC50 was > 38 µM (inactive).
Work on `Cc1ccc(NC(=O)c2cc(NC(=O)/C=C\C(=O)O)ccc2N2CCCCC2)cc1` yielded an AC50 of 9.66 µM.
With `Cc1[nH]n(-c2ccccc2)c(=O)c1/C=C1\C=NN=C1c1ccccc1` the AC50 was 17 µM.
With `C/C(=N\NC(=O)Cc1cc(=O)[nH][nH]1)c1cccc([N+](=O)[O-])c1` the AC50 was 30.5 µM.
`CCCc1ccc(/C=C2\C(=O)c3ccccc3C(O)=C2C(=O)OCC)cc1` showed an AC50 of 8.63 µM.
With `CCOC(=O)C(Nc1ccc2ccccc2c1)C(=O)OCC` the AC50 was 38.5 µM.
In the case of `COC(=O)c1c(C)oc2ccc(N(C(=O)c3ccncc3)S(=O)(=O)c3ccc4ccccc4c3)cc12`, the AC50 is reported as > 38 µM (inactive).
`CC(C)c1nnc(NC(=O)c2nc(S(=O)(=O)Cc3ccccc3)ncc2Cl)s1` gave an AC50 of 15 µM.
`COCc1[nH]nc2c1C(c1ccccc1OC)C(C#N)=C(N)O2` (stereo not drawn) showed an AC50 of 36.5 µM.
For `O=c1[nH]c2ccccc2n2c(-c3ccccc3)nnc12`, the AC50 was 22.5 µM.
In the case of `O=C(Oc1ccc(C(=S)N2CCOCC2)cc1)c1ccc([N+](=O)[O-])cc1[N+](=O)[O-]`, the AC50 is reported as > 38 µM (inactive).
With `CCOC(=O)/C(C#N)=C1/SC(C)C(=O)N1c1ccc(Br)cc1` (stereo not drawn) the AC50 was > 38 µM (inactive).
For `O=C(c1ccc(N2CCN(CCO)CC2)nc1)N1CCOCC1`, the AC50 was > 38 µM (inactive).
In the case of `CN(C)C(=S)N=Nc1[nH]c2ccccc2c1O`, the AC50 is reported as > 38 µM (inactive).
`O=C1C=Cc2ccccc2C1=O` gave an AC50 of 14.9 µM.
Work on `O=C(N/N=C/c1ccc(-c2ccccc2[N+](=O)[O-])o1)[C@H]1C[C@@H]1c1ccccc1` yielded an AC50 of 9.01 µM.
`CC1CCc2c(sc3nc(C(C)(C)C)nc(N4CCN(C(=O)CCl)CC4)c23)C1` (stereo not drawn) showed an AC50 of 2.61 µM.
`O=C(O)CSc1cc(NS(=O)(=O)c2ccc(Br)cc2)c2ccccc2c1O` gave an AC50 of 2.2 µM.
With `N#CC1=C(N)Oc2n[nH]c(-c3cccs3)c2C1c1ccoc1` (stereo not drawn) the AC50 was > 38 µM (inactive).
Molecule `O=c1cc(-c2cccc3ccccc23)[nH][nH]1` has an AC50 of 12.1 µM.
In the case of `Cc1cc(=O)n(C2CCS(=O)(=O)C2)[nH]1` (stereo not drawn), the AC50 is reported as 3.63 µM.
For `O=C(COC(=O)C1CC(=O)N(Cc2ccco2)C1)c1ccc(OC(=O)c2ccco2)cc1` (stereo not drawn), the AC50 was > 38 µM (inactive).
With `Cn1c(=O)c([N+](=O)[O-])c(-n2cnc3ccccc32)c2ccccc21` the AC50 was > 38 µM (inactive).
For `Nc1nc(-c2ccco2)nn1C(=O)c1ccc(Cl)cc1`, the AC50 was > 38 µM (inactive).
In the case of `CC1=NN(C)C(=O)C1Cc1c(F)cccc1Cl` (stereo not drawn), the AC50 is reported as > 38 µM (inactive).
For `N#C/C(=C\c1ccc(O)c([N+](=O)[O-])c1)c1nc2ccccc2s1`, the AC50 was 33.8 µM.
For `O=C1C(Nc2ccc(O)cc2)=C/C(=N/S(=O)(=O)c2cccs2)c2ccccc21`, the AC50 was 0.179 µM.
`CC(=O)C1=C(c2ccc(Br)cc2)C(=O)c2ccccc2C1=O` showed an AC50 of 7.18 µM.
With `Clc1ccc(Sc2oc(/C=N/n3cnnc3)cc2Br)cc1` the AC50 was > 38 µM (inactive).
`Cc1sc(NC(=O)CCl)c(C(=O)c2ccccc2)c1C` gave an AC50 of 5.28 µM.
In the case of `CN1CCc2nc(SCC(=O)Nc3ccc(OC(F)(F)F)cc3)c(C#N)c(-c3cccs3)c2C1`, the AC50 is reported as 23.7 µM.
Work on `COc1ccc(S(=O)(=O)/N=C2\C=C(Nc3ccc(O)cc3)C(=O)c3ccccc32)cc1` yielded an AC50 of 2.53 µM.
With `O=C(CSc1nnc(-c2ccccc2Cl)o1)Oc1ccc(Br)cc1` the AC50 was > 38 µM (inactive).
